Test results as given in patent US10045529B2, “Quat cleaner with glycerin ether ethoxylates” (Ecolab USA Inc., priority 2012, dated 2018).

Tests used:
[1] = Cloud point of solfactants in various solutions; format: physicochemical; settings: 1% in 10% NaCl
Text: Various 2-Ethyl Hexanol Glycerin Ether Ethoxylate solfactants were produced using ethoxylation by a KOH Catalyst.
Further the cloud point data for the solfactants in various solutions is shown. The cloud point temperatures show the temperature above which a surfactant-rich phase separates from an aqueous solution. There is a clear relationship between the cloud point and the average EO content of the glycerin ether ethoxylate; as the ethylene oxide content of the solfactant increases, the cloud point and water solubility increase. As the carbon number on the molecule increases, a greater number of moles of ethylene oxide are required to be added to the molecule to retain the same cloud point.

[2] = Glewwe foam meter foam height test; format: physicochemical; settings: 50 ppm
Text: Foam testing was completed for the ethoxylated glycerine ether solfactants in comparison to commercially-available ethoxylated alcohols using a Glewwe foam meter. A Glewwe foam meter provides a dynamic foam test rather than a static test, which is considered more appropriate for simulation of industrial conditions. The equipment and general procedure for the Glewwe form test is described in U.S. Pat. Nos. 3,899,387 and 5,447,648, which are herein incorporated by reference in its entirety. The foam meter itself consists of a thermostated reservoir and a pump to recirculate the aqueous medium with foaming tendencies. The foam developed by the action of the aqueous stream impinging on the surface in the reservoir causes foam formation.
The foam heights of the tested compositions were determined using the following method. First 3000 mL of city water (e.g. 17 gpg) was filled into the Glewwe cylinder. The pump was turned on, pressure adjusted to 6 psi, and heated water to 140° F. The commercially available surfactant (or the solfactant according to the invention) was added at 50 ppm in the cylinder and the timer was started. Foam height was recorded at 1 minute and 5 minutes. After 5 minutes the pump was stopped and foam stability characteristics were observed. The cylinder was then drained, rinsed, and the methods repeated.

Gel formation with water = format: physicochemical
Text: The low foam profiles and low viscosity of the glycerin ether ethoxylate solfactants as shown in Examples 5 and 6 were further compared to gel curves of conventional ethoxylated alcohols (e.g. Tomadol surfactants). […]

[3] = Tergotometer detergency test on EMPA soiled swatches
Method: Laundry detergent compositions using 500 ppm sodium hydroxide (e.g. caustic) and the indicated conventional Surfonic® surfactant or the glycerin ether ethoxylate solfactant according to the invention were evaluated. A tergotometer test procedure was employed to measure detergency of test compositions according to the invention. A tergotometer along with 500 mL pots and water bath were employed. First, unwashed swatches from the lot numbers to be used in the test are read on the Konica Minolta Spectrophotometer model CM-3600d to establish the average initial (before washing) L value. A sampling of each swatch type is used. The desired wash temperature is programmed into the Tergotometer and its water bath is allowed to heat up to that temperature. 500 mL of the desired water type is added to each Tergotometer pot and allowed to equilibrate to the desired temperature.
The following standard, commercially available (EMPA) soiled swatches were used for baseline testing in the Examples, as shown in Table 9.
The test detergent compositions are weighed out and added to the Tergotometer pots. Various detergent compositions as shown in Tables 10-11 were employed under varying water conditions, including 5 grain water (Table 10) and 17 grain water (Table 11).
The detergent systems were agitated for 10 minutes to mix and dissolve in the water sources. The agitation/mixing speed RPM was adjusted to 200. The temperature of the detergent compositions dissolved in water was 60° C., unless indicated otherwise in the Figures/Examples set forth below. The swatches are added quickly to their respective pots in a left to right sequence in order to minimize differences in exposure time to the detergent systems. A wash run is completed for at least 10 minutes. At the end of the run, the swatches are removed from the pots quickly in a left to right sequence using a forceps and are transferred into 500 mL-1 liter of cool water to rinse. After rinsing with cold tap water, excess water from the swatches was removed by squeezing the swatches. The process was repeated with rinsing and squeezing excess water at least 2 more times. The swatches were air dried on a visa napkin or paper towel on the lab bench.
The swatches were then read on the HunterLab Color Quest and calculate % soil removal (i.e. whiteness) from the difference between the initial (before washing) L value and the final L value (after washing). Percent Soil Removal=(L after−L initial)/(96−L initial)*100 is represented as L*.

[4] = Differential Scanning calorimetry (DSC) freeze or melt point; format: physicochemical
Method: Differential Scanning calorimetry (DSC) was run on the various 2-Ethyl Hexanol Glycerin Ether Ethoxylate solfactants set forth in Table 1. The DSC evaluated additional properties of the exemplary set of novel solfactants, namely the freezing point of the molecules. The DSC utilized can be measured down to minus 80° C. for determining a freeze or melt points of a liquid. […] This is distinct form conventional alcohol ethoxylates (having equivalent degrees of ethoxylation) which have very high melt points. For example, many conventional alcohol ethoxylate surfactants have melt points at room temperature or higher, resulting in the compositions being solids at room temperature. In addition, as one skilled in the art ascertains, the more ethyl oxide you add to a standard alcohol ethoxylate, the higher the melt point. This is distinct from the solfactants according to the invention, including the 2-Ethyl Hexanol Glycerin Ether Ethoxylate solfactants set forth in Table 1. For example, Tomadol 24-9 is a solid at room temperature, whereas the equivalent 2EHGE 9 mole is a liquid at room temperature.

Substance: 2-Ethyl Hexanol Glycerin Ether Ethoxylate (9 moles) [2EHGE (9 EO)]
- Cloud Point Data 1% in 10% NaCl [1]: 95 °C
- OBSERVATIONS (foam stability after pump stopped) ([2]; after 5 minutes pump stopped): Unstable - Breaks
- Foam Height (in) @ 1 MIN ([2]; city water 17 gpg, 140° F., 6 psi, 1 minute): 4.5 in
- Foam Height (in) @ 5 MIN ([2]; city water 17 gpg, 140° F., 6 psi, 5 minutes): 4.5 in
- Gel Formation (Gel formation with water; 20%/80%): None
- Gel Formation (Gel formation with water; 30%/70%): None
- Gel Formation (Gel formation with water; 40%/60%): None
- Gel Formation (Gel formation with water; 50%/50%): None
- Gel Formation (Gel formation with water; 60%/40%): None
- Gel Formation (Gel formation with water; 70%/30%): None
- Gel Formation (Gel formation with water; 80%/20%): None
- Gel Formation (Gel formation with water; 90%/10%): None
- Gel Formation (Gel formation with water; Glycerin Ether Ethoxylate %/Water % 10%/90%): None
- % removal EMPA 116 ([3]; 5 gpg water, 50 ppm, 500 ppm sodium hydroxide, 60° C., EMPA 116 (Blood, milk and ink, Cotton)): 33%
- % removal EMPA 101 ([3]; 5 gpg, 50 ppm, EMPA 101 (olive oil/carbon black, Cotton)): 32%
- % removal EMPA 104 ([3]; 5 gpg, 50 ppm, EMPA 104 (olive oil/carbon black, Cotton blend)): 38%
- % removal EMPA 106 ([3]; 5 gpg, 50 ppm, EMPA 106 (mineral oil, Cotton)): 55.18%
- % removal EMPA 111 ([3]; 5 gpg, 50 ppm, EMPA 111 (Pig blood, Cotton)): 48%
- % removal EMPA 114 ([3]; 5 gpg, 50 ppm, EMPA 114 (Red wine, Cotton)): 2%
- % removal EMPA 101 ([3]; 5 gpg, 100 ppm, EMPA 101): 29%
- % removal EMPA 104 ([3]; 5 gpg, 100 ppm, EMPA 104): 24%
- % removal EMPA 106 ([3]; 5 gpg, 100 ppm, EMPA 106): 50.14%
- % removal EMPA 111 ([3]; 5 gpg, 100 ppm, EMPA 111): 54%
- % removal EMPA 114 ([3]; 5 gpg, 100 ppm, EMPA 114): 0%
- % removal EMPA 116 ([3]; 5 gpg, 100 ppm, EMPA 116): 25%
- % removal EMPA 101 ([3]; 17 gpg, 50 ppm, EMPA 101): 21%
- % removal EMPA 104 ([3]; 17 gpg, 50 ppm, EMPA 104): 19%
- % removal EMPA 106 ([3]; 17 gpg, 50 ppm, EMPA 106): 9%
- % removal EMPA 111 ([3]; 17 gpg, 50 ppm, EMPA 111): 35%
- % removal EMPA 114 ([3]; 17 gpg, 50 ppm, EMPA 114): 1%
- % removal EMPA 116 ([3]; 17 gpg, 50 ppm, EMPA 116): 21%
- % removal EMPA 101 ([3]; 17 gpg, 100 ppm, EMPA 101): 20%
- % removal EMPA 104 ([3]; 17 gpg, 100 ppm, EMPA 104): 16%
- % removal EMPA 106 ([3]; 17 gpg, 100 ppm, EMPA 106): 10%
- % removal EMPA 111 ([3]; 17 gpg, 100 ppm, EMPA 111): 32%
- % removal EMPA 114 ([3]; 17 gpg, 100 ppm, EMPA 114): 1%
- % removal EMPA 116 ([3]; 17 gpg, 100 ppm, EMPA 116): 20%
- Physical state at room temperature [4]: liquid
